Test results reported in PMC8079033, “Design, synthesis, anticancer evaluation, and molecular modelling studies of novel tolmetin derivatives as potential VEGFR-2 inhibitors and apoptosis inducers” (Journal of Enzyme Inhibition and Medicinal Chemistry, 2021).

Assays:
SW-620 = assay: NCI 60-cell line one-dose antiproliferative screen (SRB); format: cell-based; settings: Homo sapiens, read-out: growth inhibition % (GI%)
How it was run: (§1)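 Values are GI% from a one-dose NCI DTP screen: compound at 10 µM, 48 h at 37 °C in 5% CO2, cell mass by SRB staining at 515 nm.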

MOLT-4 = assay: as above; format: cell-based; settings: Homo sapiens, read-out: growth inhibition % (GI%)
How it was run: as §1

HT29 = assay: as above; format: cell-based; settings: Homo sapiens, HT-29, read-out: growth inhibition % (GI%)
How it was run: as §1

BT-5 = assay: as above; format: cell-based; settings: Homo sapiens, read-out: growth inhibition % (GI%)
How it was run: as §1

LOX IMVI = assay: as above; format: cell-based; settings: Homo sapiens, read-out: growth inhibition % (GI%)
How it was run: as §1

OVCAR-5 = assay: as above; format: cell-based; settings: Homo sapiens, read-out: growth inhibition % (GI%)
How it was run: as §1

SK-OV-3 = assay: as above; format: cell-based; settings: Homo sapiens, read-out: growth inhibition % (GI%)
How it was run: as §1

HOP-92 = assay: as above; format: cell-based; settings: Homo sapiens, read-out: growth inhibition % (GI%)
How it was run: as §1

NCI-H460 = assay: as above; format: cell-based; settings: Homo sapiens, read-out: growth inhibition % (GI%)
How it was run: as §1

MDA-MB-435 = assay: as above; format: cell-based; settings: Homo sapiens, read-out: growth inhibition % (GI%)
How it was run: as §1

SF-295 = assay: as above; format: cell-based; settings: Homo sapiens, read-out: growth inhibition % (GI%)
How it was run: as §1

SNB-19 = assay: as above; format: cell-based; settings: Homo sapiens, read-out: growth inhibition % (GI%)
How it was run: as §1

A498 = assay: as above; format: cell-based; settings: Homo sapiens, read-out: growth inhibition % (GI%)
How it was run: as §1

SK-MEL-2 = assay: as above; format: cell-based; settings: Homo sapiens, read-out: growth inhibition % (GI%)
How it was run: as §1

HL-60 (TB) = assay: as above; format: cell-based; settings: Homo sapiens, read-out: growth inhibition % (GI%)
How it was run: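 Seed cells; incubate 24 h; fix time-zero plates with TCA; add compound to 10 µM; incubate 48 h at 37 °C; fix in cold TCA; stain with 0.4% SRB; solubilise in 10 mM Tris base; read 515 nm.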

ACHN = assay: as above; format: cell-based; settings: Homo sapiens, read-out: growth inhibition % (GI%)
How it was run: as §1

SK-MEL-28 = assay: NCI 60-cell line one-dose antiproliferative screen (SRB); format: cell-based; settings: Homo sapiens, read-out: growth inhibition % (GI%)
How it was run: as §1

HCC-2998 = assay: as above; format: cell-based; settings: Homo sapiens, read-out: growth inhibition % (GI%)
How it was run: as §1

SR = assay: as above; format: cell-based; settings: Homo sapiens, read-out: growth inhibition % (GI%)
How it was run: as §1

DU-145 = assay: as above; format: cell-based; settings: Homo sapiens, read-out: growth inhibition % (GI%)
How it was run: as §1

MALME-3M = assay: as above; format: cell-based; settings: Homo sapiens, read-out: growth inhibition % (GI%)
How it was run: as §1

KM12 = assay: as above; format: cell-based; settings: Homo sapiens, read-out: growth inhibition % (GI%)
How it was run: as §1

UACC-257 = assay: as above; format: cell-based; settings: Homo sapiens, read-out: growth inhibition % (GI%)
How it was run: as §1

TK-10 = assay: as above; format: cell-based; settings: Homo sapiens, read-out: growth inhibition % (GI%)
How it was run: as §1

OVCAR-3 = assay: as above; format: cell-based; settings: Homo sapiens, read-out: growth inhibition % (GI%)
How it was run: as §1

HS 578 T = assay: as above; format: cell-based; settings: Homo sapiens, read-out: growth inhibition % (GI%)
How it was run: as §1

Row | Structure (SMILES) | inhibition at 10 µM (SW-620) | inhibition at 10 µM (MOLT-4) | inhibition at 10 µM (BT-5) | inhibition at 10 µM (LOX IMVI) | inhibition at 10 µM (OVCAR-5) | inhibition at 10 µM (SK-OV-3) | inhibition at 10 µM (HOP-92) | inhibition at 10 µM (NCI-H460) | inhibition at 10 µM (MDA-MB-435) | inhibition at 10 µM (SF-295) | inhibition at 10 µM (SNB-19) | inhibition at 10 µM (A498) | inhibition at 10 µM (SK-MEL-2) | inhibition at 10 µM (HL-60 (TB)) | inhibition at 10 µM (ACHN) | melting point | inhibition at 10 µM (SR) | inhibition at 10 µM (DU-145) | inhibition at 10 µM (MALME-3M) | inhibition at 10 µM (KM12) | other results
1 | Cc1ccc(C(=O)c2ccc(CC(=O)NN3C(=O)CCC3=O)n2C)cc1 [Compound 7a, N-(2,5-Dioxopyrrolidin-1-yl)-2–(1-methyl-5–(4-methylbenzoyl)-1H-pyrrol-2-yl) acetamide] | < 10% | < 10% | < 10% | 12.8% | 10.6% | 14% | 19.2% | < 10% | < 10% | < 10% | 20% | 14.5% | < 10% | < 10% | 11.2% | > 300 °C | – | – | – | – | inhibition at 10 µM (HT29): < 10%
2 | Cc1ccc(C(=O)c2ccc(CC(=O)NN=Cc3ccccc3O)n2C)cc1 [Compound 5a, N′-(2-Hydroxybenzylidene)-2–(1-methyl-5–(4-methylbenzoyl)-1H-pyrrol-2-yl)aceto hydrazide] | 10.4% | 26% | 14.9% | 42% | < 10% | < 10% | < 10% | 23.4% | 16.8% | < 10% | 20.7% | 18% | 10.4% | 13% | 46.8% | 222 to 224 °C | 43.8% | 10.4% | < 10% | 19.6% | inhibition at 10 µM (SK-MEL-28): 15.7%; inhibition at 10 µM (HCC-2998): < 10%; inhibition at 10 µM (UACC-257): < 10%; inhibition at 10 µM (TK-10): 14.9%; inhibition at 10 µM (OVCAR-3): 19.7%
3 | Cc1ccc(C(=O)c2ccc(CC(=O)NN3C(=O)C=CC3=O)n2C)cc1 [Compound 7b, N-(2,5-Dioxo-2,5-dihydro-1H-pyrrol-1-yl)-2–(1-methyl-5–(4-methylbenzoyl)-1H-pyrrol-2-yl)acetamide] | < 10% | 14% | < 10% | 11.1% | < 10% | < 10% | – | – | < 10% | < 10% | 11% | 10.7% | < 10% | 10.6% | 11.1% | 193 to 195 °C | – | < 10% | – | < 10% | inhibition at 10 µM (HS 578 T): < 10%
4 | Cc1ccc(C(=O)c2ccc(CC(=O)NN=Cc3c[nH]c4ccccc34)n2C)cc1 [Compound 5f, N′-((1H-Indol-3-yl)methylene)-2–(1-methyl-5–(4-methylbenzoyl)-1H-pyrrol-2-yl) acetohydrazide] | < 10% | 16.5% | < 10% | 16.5% | < 10% | – | < 10% | < 10% | < 10% | < 10% | 12.5% | 15.6% | – | 27% | 34.2% | 168 to 170 °C | 11.2% | – | 19.3% | – | inhibition at 10 µM (OVCAR-3): < 10%; inhibition at 10 µM (HS 578 T): < 10%
